Measured values as given in patent US8067408B2, “Dual pharmacophores—PDE4-muscarinic antagonistics” (priority 2008, dated 2011).

SMILES: CCc1nc2c(cnn2CC)c(NC2CCOCC2)c1CNC(=O)c1cccc(C(=O)NCc2ccc(C)c(-c3cccc(CN4CCCNCC4)c3)c2)c1 [Example 196, N-{[1,6-Diethyl-4-(tetrahydro-2H-pyran-4-ylamino)-1H-pyrazolo[3,4-b]pyridin-5-yl]methyl}-N′-{[3′-(hexahydro-1H-1,4-diazepin-1-ylmethyl)-6-methyl-3-biphenylyl]methyl}-1,3-benzenedicarboxamide]
- melting point: 118 to 120 °C

SMILES: CCc1nc2c(cnn2CC)c(NC2CCOCC2)c1CNC(=O)c1cccc(C(=O)NCc2ccc(C)c(-c3cccc(CN4C[C@@H]5C[C@H]4CN5)c3)c2)c1 [Example 197, N-({3′-[(1S,4S)-2,5-Diazabicyclo [2.2.1]hept-2-ylmethyl]-6-methyl-3-biphenylyl}methyl)-N′-{[1,6-diethyl-4-(tetrahydro-2H-pyran-4-ylamino)-1H-pyrazolo[3,4-b]pyridin-5-yl]methyl}-1,3-benzenedicarboxamide]
- melting point: 138 to 140 °C

SMILES: CCc1nc2c(cnn2CC)c(NC2CCOCC2)c1CNC(=O)c1cccc(C(=O)NCc2ccc(F)c(-c3cccc(CN4C[C@H](C)NC[C@H]4C)c3)c2)c1 [Example 198, N-{[1,6-Diethyl-4-(tetrahydro-2H-pyran-4-ylamino)-1H-pyrazolo[3,4-b]pyridin-5-yl]methyl}-N′-[(3′-{[(2R,5S)-2,5-dimethyl-1-piperazinyl]methyl}-6-fluoro-3-biphenylyl)methyl]-1,3-benzenedicarboxamide]
- melting point: 187 to 190 °C (dec.)

SMILES: CCc1nc2c(cnn2CC)c(NC2CCOCC2)c1CNC(=O)c1cccc(C(=O)NCc2ccc(F)c(-c3cccc(CN4CCCCC4)c3)c2)c1 [Example 199, N-{[1,6-Diethyl-4-(tetrahydro-2H-pyran-4-ylamino)-1H-pyrazolo[3,4-b]pyridin-5-yl]methyl}-N′-{[6-fluoro-3′-(1-piperidinylmethyl)-3-biphenylyl]methyl}-1,3-benzenedicarboxamide]
- melting point: 128 to 131 °C

SMILES: CCc1nc2c(cnn2CC)c(NC2CCOCC2)c1CNC(=O)c1cccc(C(=O)NCc2ccc(F)c(-c3cccc(CN4CCN(C)CC4)c3)c2)c1 [Example 200, N-{[1,6-Diethyl-4-(tetrahydro-2H-pyran-4-ylamino)-1H-pyrazolo[3,4-b]pyridin-5-yl]methyl}-AN-({6-fluoro-3′-[(4-methyl-1-piperazinyl)methyl]-3-biphenylyl}methyl)-1,3-benzenedicarboxamide]
- melting point: 169 to 173 °C

SMILES: CCc1nc2c(cnn2CC)c(NC2CCOCC2)c1CNC(=O)c1cccc(C(=O)NCc2ccc(F)c(-c3cccc(CN4CCNC(=O)C4)c3)c2)c1 [Example 201, N-{[1,6-Diethyl-4-(tetrahydro-2H-pyran-4-ylamino)-1H-pyrazolo[3,4-b]pyridin-5-yl]methyl}-N′-({6-fluoro-3′-[(3-oxo-1-piperazinyl)methyl]-3-biphenylyl}methyl)-1,3-benzenedicarboxamide]
- melting point: 147 to 150 °C

SMILES: CCc1nc2c(cnn2CC)c(NC2CCOCC2)c1CNC(=O)c1cccc(C(=O)NCc2ccc(F)c(-c3cccc(CN4CCN(CC)CC4)c3)c2)c1 [Example 202, N-{[1,6-Diethyl-4-(tetrahydro-2H-pyran-4-ylamino)-1H-pyrazolo[3,4-b]pyridin-5-yl]methyl}-N′-({3′-[(4-ethyl-1-piperazinyl)methyl]-6-fluoro-3-biphenylyl}methyl)-1,3-benzenedicarboxamide]
- melting point: 155 to 158 °C

SMILES: CCc1nc2c(cnn2CC)c(NC2CCOCC2)c1CNC(=O)c1cccc(C(=O)NCc2ccc(F)c(-c3cccc(CN4CCN(C(C)C)CC4)c3)c2)c1 [Example 203, N-{[1,6-Diethyl-4-(tetrahydro-2H-pyran-4-ylamino)-1H-pyrazolo[3,4-b]pyridin-5-yl]methyl}-N′-[(6-fluoro-3′-{[4-(1-methylethyl)-1-piperazinyl]methyl}-3-biphenylyl)methyl]-1,3-benzenedicarboxamide]
- melting point: 165 to 169 °C

SMILES: CCc1nc2c(cnn2CC)c(NC2CCOCC2)c1CNC(=O)c1cccc(C(=O)NCc2ccc(F)c(-c3cccc(CN4CCCNCC4)c3)c2)c1 [Example 204, N-{[1,6-Diethyl-4-(tetrahydro-2H-pyran-4-ylamino)-1H-pyrazolo[3,4-b]pyridin-5-yl]methyl}-N′-{[6-fluoro-3′-(hexahydro-1H-1,4-diazepin-1-ylmethyl)-3-biphenylyl]methyl}-1,3-benzenedicarboxamide]
- melting point: 145 to 148 °C

SMILES: CCc1nc2c(cnn2CC)c(NC2CCOCC2)c1CNC(=O)c1cccc(C(=O)NCc2ccc(F)c(-c3cccc(CN(C)CCN(C)C)c3)c2)c1 [Example 206, N-{[1,6-Diethyl-4-(tetrahydro-2H-pyran-4-ylamino)-1H-pyrazolo[3,4-b]pyridin-5-yl]methyl}-N′-[(3′-{[[2-(dimethylamino)-ethyl](methyl)amino]methyl}-6-fluoro-3-biphenylyl)methyl]-1,3-benzenedicarboxamide]
- melting point: 126 to 129 °C

SMILES: CCc1nc2c(cnn2CC)c(NC2CCOCC2)c1CNC(=O)c1cccc(C(=O)NCc2ccc(F)c(-c3cccc(CN4C[C@@H]5C[C@H]4CN5)c3)c2)c1 [Example 207, N-({3′-[(1S,4S)-2,5-Diazabicyclo [2.2.1]hept-2-ylmethyl]-6-fluoro-3-biphenylyl}methyl)-N′-{[1,6-diethyl-4-(tetrahydro-2H-pyran-4-ylamino)-1H-pyrazolo[3,4-b]pyridin-5-yl]methyl}-1,3-benzenedicarboxamide]
- melting point: 129 to 133 °C

SMILES: CCc1nc2c(cnn2CC)c(NC2CCOCC2)c1CNC(=O)c1cccc(C(=O)NCc2ccc(OC)c(-c3cccc(CN4CCNCC4)c3)c2)c1 [Example 209, N-{[1,6-Diethyl-4-(tetrahydro-2H-pyran-4-ylamino)-1H-pyrazolo[3,4-b]pyridin-5-yl]methyl}-N′-{[6-(methyloxy)-3′-(1-piperazinylmethyl)-3-biphenylyl]methyl}-1,3-benzenedicarboxamide]
- melting point: 138 to 140 °C

SMILES: CCc1nc2c(cnn2CC)c(NC2CCOCC2)c1CNC(=O)c1cccc(C(=O)NCc2ccc(OC)c(-c3cccc(CN4C[C@@H](C)N[C@@H](C)C4)c3)c2)c1 [Example 210, N-{[1,6-Diethyl-4-(tetrahydro-2H-pyran-4-ylamino)-1H-pyrazolo[3,4-b]pyridin-5-yl]methyl}-N′-{[3′-{[(3R,5S)-3,5-dimethyl-1-piperazinyl]methyl}-6-(methyloxy)-3-biphenylyl]methyl}-1,3-benzenedicarboxamide]
- melting point: 127 to 129 °C

SMILES: CCc1nc2c(cnn2CC)c(NC2CCOCC2)c1CNC(=O)c1cccc(C(=O)NCc2ccc(C)c(-c3cccc(CN4C[C@@H](C)N[C@@H](C)C4)c3)c2)c1 [Example 211, N-{[1,6-Diethyl-4-(tetrahydro-2H-pyran-4-ylamino)-1H-pyrazolo[3,4-b]pyridin-5-yl]methyl}-N′-[(3′-{[(3R,5S)-3,5-dimethyl-1-piperazinyl]methyl}-6-methyl-3-biphenylyl)methyl]-1,3-benzenedicarboxamide]
- melting point: 109 to 112 °C

SMILES: CCc1nc2c(cnn2CC)c(NC2CCOCC2)c1CNC(=O)c1cccc(C(=O)NCc2ccc(C)c(-c3cccc(CN4CCN[C@@H](C)C4)c3)c2)c1 [Example 212, N-{[1,6-Diethyl-4-(tetrahydro-2H-pyran-4-ylamino)-1H-pyrazolo[3,4-b]pyridin-5-yl]methyl}-N′-[(6-methyl-3′-{[(3S)-3-methyl-1-piperazinyl]methyl}-3-biphenylyl)methyl]-1,3-benzenedicarboxamide]
- melting point: 115 to 118 °C

SMILES: CCc1nc2c(cnn2CC)c(NC2CCOCC2)c1CNC(=O)c1cccc(C(=O)NCc2ccc(OC)c(-c3cccc(CN4CCN[C@@H](C)C4)c3)c2)c1 [Example 213, N-{[1,6-Diethyl-4-(tetrahydro-2H-pyran-4-ylamino)-1H-pyrazolo[3,4-b]pyridin-5-yl]methyl}-N′-[(6-(methyloxy)-3′-{[(3S)-3-methyl-1-piperazinyl]methyl}-3-biphenylyl)methyl]-1,3-benzenedicarboxamide]
- melting point: 110 to 112 °C

SMILES: CCc1nc2c(cnn2CC)c(NC2CCOCC2)c1CNC(=O)c1cccc(C(=O)NCc2ccc(Cl)c(-c3cccc(CN4CCN[C@@H](C)C4)c3)c2)c1 [Example 214, N-[(6-Chloro-3′-{[(3S)-3-methyl-1-piperazinyl]methyl}-3-biphenylyl)methyl]-N′-{[1,6-diethyl-4-(tetrahydro-2H-pyran-4-ylamino)-1H-pyrazolo[3,4-b]pyridin-5-yl]methyl}-1,3-benzenedicarboxamide]
- melting point: 117 to 120 °C

SMILES: CCc1nc2c(cnn2CC)c(NC2CCOCC2)c1CNC(=O)c1cccc(C(=O)NCc2ccc(Cl)c(-c3cccc(CN4CCN[C@@H](C)C4)c3)c2)c1 [Example 215, N-[(6-Chloro-3′-{[(3S)-3-methyl-1-piperazinyl]methyl}-3-biphenylyl)methyl]-N′-{[1,6-diethyl-4-(tetrahydro-2H-pyran-4-ylamino)-1H-pyrazolo[3,4-b]pyridin-5-yl]methyl}-1,3-benzenedicarboxamide]
- melting point: 116 to 118 °C

SMILES: CCc1nc2c(cnn2CC)c(NC2CCOCC2)c1CNC(=O)c1cccc(C(=O)NCc2ccc(C)c(-c3cccc(CN4CCCN(C)CC4)c3)c2)c1 [Example 216, N-{[1,6-Diethyl-4-(tetrahydro-2H-pyran-4-ylamino)-1H-pyrazolo[3,4-b]pyridin-5-yl]methyl}-N′-({6-methyl-3′-[(4-methylhexahydro-1H-1,4-diazepin-1-yl)methyl]-3-biphenylyl}methyl)-1,3-benzenedicarboxamide]
- melting point: 107 to 109 °C

SMILES: CCc1nc2c(cnn2CC)c(NC2CCOCC2)c1CNC(=O)c1cccc(C(=O)NCc2ccc(OC)c(-c3cccc(CN4CCCN(C)CC4)c3)c2)c1 [Example 217, N-{[1,6-Diethyl-4-(tetrahydro-2H-pyran-4-ylamino)-1H-pyrazolo[3,4-b]pyridin-5-yl]methyl}-N′-{[3′-[(4-methylhexahydro-1H-1,4-diazepin-1-yl)methyl]-6-(methyloxy)-3-biphenylyl]methyl}-1,3-benzenedicarboxamide]
- melting point: 116 to 119 °C
